Article PMC8742467, “Therapeutical interference with the epigenetic landscape of germ cell tumors: a comparative drug study and new mechanistical insights” (Clinical Epigenetics, 2022)
pEC50: −log10 of the molar value. Like-named read-outs stand apart in the source and are kept apart here.

Legend:
[1] = system: JAR (CC); test: XTT cell viability assay, JAR; format: cell-based; settings: Homo sapiens, after 48 h, n = 4, read-out: EC50 colour/symbol code, CC JAR
Outline: (§1)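 GCT cells seeded at 5 × 10^3/well, UC lines at 3 × 10^3/well; drug dilution series or solvent added next day. Viability read by XTT, four technical replicates per condition; EC50 calculated from concentration–response data.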

[2] = system: histone modifications in 2102EP cells; test: Mass spectrometry analysis of histone modifications (Mod Spec); format: cell-based, Human
Outline: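 2102EP cells were treated for 16 h with EC50 concentrations of Quisinostat, JIB-04, Chaetocin, MZ-1, LP99, PRT4165 or GSK343, with DMSO as solvent control. After trypsin harvest, histones were extracted and analysed by mass spectrometry. Raw data were converted to z-scores.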

[3] = system: DNA methylation (5mC, 5hmC) in 2102EP cells; test: DNA slot blot (5mC, 5hmC); format: cell-based, Human; settings: 24 h
Protocol: Purity of DNA was verified using NanoDrop 260/280 ratio and agarose gel electrophoresis. DNA was diluted in H2O to 200 ng, 100 ng and 50 ng in 200 µl per slot. Slot-Blotter device (Carl Roth GmbH + Co KG, Karlsruhe, Germany) was assembled as according to the manual. DNA was blotted onto a positively charged nylon membrane (Carl Roth GmbH + Co KG, Karlsruhe, Germany) using vacuum application. Three identical membranes were prepared. The membranes were air-dried for 15—20 min and UV-crosslinked (20 s (s), 1200 mJ/cm^2). One membrane was stained with methylene blue (0.02% methylene blue (Merck Millipore, Darmstadt, Germany) in 0.3 M sodium acetate (pH 5.2)) to validate DNA loading across the samples. The remaining two membranes were blocked in 5% milk powder in PBST for 1 h at RT. Membranes were incubated with 5mC or 5hmC antibody overnight at 4 °C. After washing, membranes were incubated with secondary antibody for 2 h at RT. Signals were detected using the ChemiDoc Imaging Systems (Bio-Rad Laboratories, Feldkirchen, Germany).

[4] = system: EC-R (cisplatin-resistant embryonal carcinoma subclones); test: XTT cell viability assay, mean per entity EC-R; format: cell-based; settings: Homo sapiens, after 48 h
Protocol: (§2) The […] (XTT) assays were performed as described previously. In summary, for GCT and fibroblast cell lines 5 × 10^3 cells (3 × 10^3 for UC, PCa and RCC cell lines) per 96-well were seeded and different drug concentrations (see Additional file 2: Fig. S2, Additional file 3: Fig. S3) or corresponding solvents were added to the cells the following day. For drug details see Additional file 12: Table S2 C. Each condition was analyzed in four technical replicates and EC50 values were calculated by GraphPad Prism v8.

[5] = system: 2102EP (EC); test: XTT cell viability assay, 2102EP; format: cell-based; settings: Homo sapiens; after 48 h, XTT, n = 4; read-out: EC50 colour/symbol code, EC 2102EP
Outline: as §1

[6] = system: PRKCB, PRKD1, HDAC9, CSF1R expression in GCT cells; test: Quantitative RT-PCR of co-treatment target genes; format: cell-based, Human; settings: 0.2 × EC50, 0.5 × EC50 and EC50
Protocol: Quantitative RT-PCR (qRT-PCR) was performed as described previously. A total amount of 1 µg of RNA was in-vitro transcribed into cDNA by using Oligo(dT)18 Primer and Maxima H Minus Reverse Transcriptase (200 U/µL) (all Thermo Fisher Scientific). qRT-PCR runs were performed on a 384-well C1000 cycler (BioRad, Feldkirchen, Germany). All samples were analyzed in technical triplicates using 7.34 ng of cDNA for each replicate and the SYBR-green-based Luna Universal qPCR Master Mix (New England Biolabs, Frankfurt am Main, Germany). At the end of each run, melting curve analyses were performed. Oligonucleotide sequences are given in the supplement (Additional file 12: Table S2 B).

[7] = system: SE-R (cisplatin-resistant seminoma subclone); test: XTT cell viability assay, mean per entity SE-R; format: cell-based; settings: Homo sapiens, after 48 h
Protocol: as §2

[8] = system: GCT cell lines; test: XTT cell viability assay, GCT cell lines (pre-screen / summary); format: cell-based, Human; settings: Homo sapiens, GCT
Outline: as §1

[9] = system: SE (seminoma) cell lines; test: XTT cell viability assay, mean per entity SE; format: cell-based; settings: Homo sapiens, after 48 h
Protocol: as §2

[10] = 2102EP cells, Mod Spec raw data
[11] = 2102EP, EC50, 16 h, vs solvent control

With CCCc1cc(C)[nH]c(=O)c1CNC(=O)c1cc(-c2ccnc(N3CCN(C)CC3)c2)cc2c1cnn2C(C)C [GSK343] the pEC50 [1] was 4.30 to 6.00, the “H1.4: K25AC, % of peptide pool” value [2, 10] was 0.006216% and the “H1.4: K25ME1, % of peptide pool” value [2, 10] was 2.263%. For the same molecule, the “H1.4: K25ME2, % of peptide pool” value [2, 10] was 0.05379%, the “H1.4: K25ME3, % of peptide pool” value [2, 10] was 0.00622% and the “H1.4: K25UN, % of peptide pool” value [2, 10] was 97.6705%. The “H2A1: K13AC, % of peptide pool” value [2, 10] was 0.008349%, the “H2A1: K13UN, % of peptide pool” value [2, 10] was 99.9917% and the “H2A1: K15AC, % of peptide pool” value [2, 10] was 0.01155%. The “H2A1: K15UB, % of peptide pool” value [2, 10] was 0%, the “H2A1: K15UN, % of peptide pool” value [2, 10] was 99.9884% and the “H2A3: K13AC, % of peptide pool” value [2, 10] was 0.06695%. The “H2A3: K13UN, % of peptide pool” value [2, 10] was 99.933%, the “H2A3: K15AC, % of peptide pool” value [2, 10] was 0.06714% and the “H2A3: K15UB, % of peptide pool” value [2, 10] was 0%. For the same molecule, the “H2A3: K15UN, % of peptide pool” value [2, 10] was 99.9329%, the “H2A: K5AC, % of peptide pool” value [2, 10] was 13.1006% and the “H2A: K5UN, % of peptide pool” value [2, 10] was 86.8994%. The “H2A: K9AC, % of peptide pool” value [2, 10] was 1.639%, the “H2A: K9UN, % of peptide pool” value [2, 10] was 98.3613% and the “H2A: K36AC, % of peptide pool” value [2, 10] was 0.03993%. The “H2A: K36UN, % of peptide pool” value [2, 10] was 99.9601%, the “H3: K9AC, % of peptide pool” value [2, 10] was 0.6993% and the “H3: K9ME1, % of peptide pool” value [2, 10] was 34.216%. For the same molecule, the “H3: K9ME2, % of peptide pool” value [2, 10] was 32.7434%, the “H3: K9ME3, % of peptide pool” value [2, 10] was 3.375% and the “H3: K9UN, % of peptide pool” value [2, 10] was 28.9663%. The “H3: K14AC, % of peptide pool” value [2, 10] was 31.7092%, the “H3: K14UN, % of peptide pool” value [2, 10] was 68.2908% and the “H3: K18AC, % of peptide pool” value [2, 10] was 12.5517%. For the same molecule, the “H3: K18ME1, % of peptide pool” value [2, 10] was 0.1858%, the “H3: K18UN, % of peptide pool” value [2, 10] was 87.2625% and the “H3: K23AC, % of peptide pool” value [2, 10] was 21.2228%. For the same molecule, the “H3: K23ME1, % of peptide pool” value [2, 10] was 0.01722%, the “H3: K23UN, % of peptide pool” value [2, 10] was 78.76% and the “H3: K56AC, % of peptide pool” value [2, 10] was 0.2947%. For the same molecule, the “H3: K56ME1, % of peptide pool” value [2, 10] was 0.4365%, the “H3: K56UN, % of peptide pool” value [2, 10] was 99.2689% and the “H3: K64AC, % of peptide pool” value [2, 10] was 0.01667%. For the same molecule, the “H3: K64UN, % of peptide pool” value [2, 10] was 99.9833%, the “H3: K79AC, % of peptide pool” value [2, 10] was 0.7184% and the “H3: K79ME1, % of peptide pool” value [2, 10] was 16.7848%. The “H3: K79ME2, % of peptide pool” value [2, 10] was 6.651%, the “H3: K79ME3, % of peptide pool” value [2, 10] was 10.1333% and the “H3: K79UN, % of peptide pool” value [2, 10] was 65.7124%. For the same molecule, the “H3: K122AC, % of peptide pool” value [2, 10] was 0.136%, the “H3: K122UN, % of peptide pool” value [2, 10] was 99.864% and the “H3: Q19ME1, % of peptide pool” value [2, 10] was 0.007707%. For the same molecule, the “H3: Q19UN, % of peptide pool” value [2, 10] was 99.9923%, the “H3: Q55ME1, % of peptide pool” value [2, 10] was 0.1478% and the “H3: Q55UN, % of peptide pool” value [2, 10] was 99.8522%. For the same molecule, the “H3: R42ME2, % of peptide pool” value [2, 10] was 3.196%, the “H3: R42UN, % of peptide pool” value [2, 10] was 96.8039% and the “H3: R49ME2, % of peptide pool” value [2, 10] was 7.636%. For the same molecule, the “H3: R49UN, % of peptide pool” value [2, 10] was 92.3639%, the “H3R2UN: K4AC, % of peptide pool” value [2, 10] was 0.06759% and the “H3R2UN: K4ME1, % of peptide pool” value [2, 10] was 18.4584%. For the same molecule, the “H3R2UN: K4ME2, % of peptide pool” value [2, 10] was 0.1346%, the “H3R2UN: K4ME3, % of peptide pool” value [2, 10] was 0.0559% and the “H3R2UN: K4UN, % of peptide pool” value [2, 10] was 81.2835%. The “H3R2UN: Q5ME1, % of peptide pool” value [2, 10] was 0.1125%, the “H3R2UN: Q5UN, % of peptide pool” value [2, 10] was 99.8875% and the “H3.1: K27AC, % of peptide pool” value [2, 10] was 2.595%. For the same molecule, the “H3.1: K27ME1, % of peptide pool” value [2, 10] was 48.9633%, the “H3.1: K27ME2, % of peptide pool” value [2, 10] was 15.6374% and the “H3.1: K27ME3, % of peptide pool” value [2, 10] was 2.258%. The “H3.1: K27UN, % of peptide pool” value [2, 10] was 30.5467%, the “H3.1: K36AC, % of peptide pool” value [2, 10] was 0.2238% and the “H3.1: K36ME1, % of peptide pool” value [2, 10] was 13.8902%. For the same molecule, the “H3.1: K36ME2, % of peptide pool” value [2, 10] was 50.2838%, the “H3.1: K36ME3, % of peptide pool” value [2, 10] was 20.6064% and the “H3.1: K36UN, % of peptide pool” value [2, 10] was 14.9959%. The “H3.3: K27AC, % of peptide pool” value [2, 10] was 7.138%, the “H3.3: K27M, % of peptide pool” value [2, 10] was 0% and the “H3.3: K27ME1, % of peptide pool” value [2, 10] was 44.2688%. The “H3.3: K27ME2, % of peptide pool” value [2, 10] was 12.6213%, the “H3.3: K27ME3, % of peptide pool” value [2, 10] was 4.2957% and the “H3.3: K27UN, % of peptide pool” value [2, 10] was 31.6757%. For the same molecule, the “H3.3: K36AC, % of peptide pool” value [2, 10] was 3.015%, the “H3.3: K36ME1, % of peptide pool” value [2, 10] was 12.2658% and the “H3.3: K36ME2, % of peptide pool” value [2, 10] was 51.706%. For the same molecule, the “H3.3: K36ME3, % of peptide pool” value [2, 10] was 19.9849%, the “H3.3: K36UN, % of peptide pool” value [2, 10] was 13.0282% and the “H4: K5AC, % of peptide pool” value [2, 10] was 7.684%. The “H4: K5UN, % of peptide pool” value [2, 10] was 92.3159%, the “H4: K8AC, % of peptide pool” value [2, 10] was 10.6823% and the “H4: K8UN, % of peptide pool” value [2, 10] was 89.3177%. For the same molecule, the “H4: K12AC, % of peptide pool” value ([2]; 2102EP cells, Mod Spec raw data, histone H4 K12 acetylated) was 6.039 % of peptide pool, the “H4: K12UN, % of peptide pool” value ([2]; 2102EP cells, Mod Spec raw data, histone H4 K12 unmodified) was 93.9609 % of peptide pool and the “H4: K16AC, % of peptide pool” value ([2]; 2102EP cells, Mod Spec raw data, histone H4 K16 acetylated) was 41.5696 % of peptide pool. The “H4: K16UN, % of peptide pool” value ([2]; 2102EP cells, Mod Spec raw data, histone H4 K16 unmodified) was 58.4304 % of peptide pool, the “H4: K20AC, % of peptide pool” value ([2]; 2102EP cells, Mod Spec raw data, histone H4 K20 acetylated) was 21.2904 % of peptide pool and the “H4: K20ME2, % of peptide pool” value ([2]; 2102EP cells, Mod Spec raw data, histone H4 K20 dimethylated) was 42.0499 % of peptide pool. The “H4: K20ME1, % of peptide pool” value ([2]; 2102EP cells, Mod Spec raw data, histone H4 K20 monomethylated) was 3.554 % of peptide pool, the “H4: K20ME3, % of peptide pool” value ([2]; 2102EP cells, Mod Spec raw data, histone H4 K20 trimethylated) was 1.778 % of peptide pool and the “H4: K20UN, % of peptide pool” value ([2]; 2102EP cells, Mod Spec raw data, histone H4 K20 unmodified) was 31.3272 % of peptide pool. For the same molecule, the “change of histone modifications of the expected mode of action (Mod Spec)” value [2, 11] was “decreased H3K27 methylation”, the “off-target changes of histone modifications (Mod Spec)” value [2, 11] was “increase of H4K20ac” and the “5hmC levels increase compared to solvent control” value [3] was 30%. For the same molecule, the “5mC levels compared to solvent control” value ([3]; solvent control set to 100%) was 52%, the pEC50 [4] was 5.03 and the pEC50 [5] was 4.30 to 6.00. The “CSF1R expression (qRT-PCR)” value [6] was “upregulation”, the “HDAC9 expression (qRT-PCR)” value [6] was “upregulation” and the pEC50 [7] was 5.00. For the same molecule, the pEC50 ([8]; cell line not stated, read-out: EC50 concentration used for low dose qRT-PCR) was 4.97, the pEC50 ([8]; first pre-screen, XTT, read-out: EC50) was no less than 4.30 and the pEC50 [9] was 4.92.
